From patent publication US20260373078A1 (NANJING QINLING PHARMACEUTICAL TECHNOLOGY COMPANY LIMITED, priority 2023, published 2026)

Legend:
[1] = Water solubility of wogonin / uniform solution with arginine; format: physicochemical; conditions: arginine 2%-10% (w/v)
Excerpt: In addition, in order to ensure that a pH of the solution remains stable within a range of 7.0-11.0, an appropriate amount of citric acid may need to be added to the formulation, with a content of 0.01%-0.05% (w/v).

[2] = system: human glioma cancer cells; conditions: Tsai et al., Int J Mol Sci. 2012; cited from earlier work

content of wogonin at which a uniform solution may be obtained [1]: 0.1-5.0 % (w/v)
SMILES: COc1c(O)cc(O)c2c(=O)cc(-c3ccccc3)oc12 [Wogonin, wogonin]
reactive oxygen species production and cell apoptosis [2]: induces reactive oxygen species production and cell apoptosis
